Measured values taken from patent publication US10646494B2, “Heterocycle-substituted tetracyclic compounds and methods of use thereof for the treatment of viral diseases” (Merck Sharp & Dohme Corp., priority 2016, dated 2020).
Like-named read-outs stand apart in the source and are kept apart here.

Columns and labels:
Design in all cases: species or system Hepatitis C virus (HCV)
HCV replicon 2B = test: Cell-based HCV replicon assay (Replicon Assay A), replicon 2B; conditions: read-out: Replicon EC50 (nM) 2B, replicon 2B, replicon RNA by real time PCR, cells harvested on day 3
Protocol: (§1) To measure cell-based anti-HCV activity of compounds of the present invention, two complimentary assays were employed using various replicons. In the first assay (“Replicon Assay A”), replicon cells were seeded at 2000 cells/well in 384-well 384-well flat bottom tissue culture treated clear bottom plate (Corning 3707) in the presence of the test compound. Various concentrations of test compound, typically in 10 serial dilutions, were added to the assay mixture, with the starting concentration ranging from 333.3 nM to […]. The final concentration of DMSO was 0.5%. Fetal bovine serum was 5%, in the assay media. Cells were harvested on day 3 by removing media and washing the cells with a suitable wash buffer. The cells are lysed with the addition of 1× Qiagen lysis buffer (Cat #1062731). The replicon RNA level was measured using real time PCR (TaqMan® EZ RT-PCR, Applied Biosystems 403028) with the following primers and probes: […]
(§2) Cyclophilin RNA was used as endogenous control and was amplified in the same reaction as NS5B (multiplex PCR). The real-time RT-PCR reactions were run on ABI PRISM 7900HT Sequence Detection System using the following program: 50° C. for 2 minutes, 60° C. for 30 minutes, 95° C. for 5 minutes, 40 cycles of 94° C. for 20 sec, 55° C. for 1 minutes.
(§3) The amount of HCV replicon RNA per cell is quantified using a linear regression curve for a known nanogram (ng) amount of HCV replicon total RNA. This is established by plotting the Cycle Threshold values (Ct) from the Neo probe and primer set versus the log (ng) for each HCV replicon total RNA standard. The amount of HCV RNA for each replicon sample is calculated by taking the sample's Ct value, minus the line intercept, divided by the slope of the line. Similarly, the amount of Cyclophilin mRNA per cell is also quantified using a linear regression curve for a known nanogram (ng) amount of HCV replicon total RNA. Again, this is established by plotting the Cycle Threshold values (Ct) from the Cyclophilin probe and primer set versus the log (ng) for each HCV replicon total RNA standard.
(§4) Data was obtained for various compounds of the present invention using the methods described in the Example above, and is presented in the table immediately below. Data for replicons 1A, 1AY93H and 2B were obtained using Replicon Assay A and data for replicons 1B were obtained using Replicon Assay B.

HCV replicon 1A = test: Cell-based HCV replicon assay (Replicon Assay A), replicon 1A; conditions: replicon RNA by real time PCR, cells harvested on day 3
Protocol: as §1, §2, §3, §4

HCV replicon 1B = test: Cell-based HCV replicon assay (Replicon Assay B), replicon 1B; conditions: replicon RNA by real-time PCR, incubated for 3 days
Protocol: In an alternate assay (“Replicon Assay B”), 1000 cells were seeded per well in a 384-well collagen coated black plate from Greiner bio-one (Cat #781946) in 5% FBS. Inhibitors of this invention were added at 24 h post-seeding, and the plates were incubated for 3 days. Cells were subsequently lysed with Qiagen lysis buffer (Cat #1062731) to extract the RNA. HCV replicon RNA level was measured by real-time PCR using the RNA-to-CT kit from Applied Biosystem (Cat #4392656) and genotype-specific primers and probes. The amplicon was located within NSSB. The sequence of the PCR primers are as follows: 5B.2F, ATGGACAGGCGCCCTGA (SEQ. ID NO. 1); 5B.2R, […] (SEQ. ID NO. 2); the probe sequence was FAM-labeled CACGCCATGCGCTGCGG (SEQ. ID NO. 3). To detect genotype 1A the primer 1A F, TGCGGAACCGGTGAGTACA and 1A R, […] were used; the probe sequence was FAM-[…].
The real-time RT-PCR reactions were run on ABI PRISM 7900HT or Viia7 Sequence Detection System using the following program: 48° C. for 30 minutes, 95° C. for 10 minutes, 40 cycles of 95° C. for 15 sec, 60° C. for 1 minutes. The 50% effective concentration (EC50) was the drug concentration necessary to achieve an increase in the cycle threshold (CT) of 1 over the projected baseline CT.
as §4

HCV replicon 1A Y93H = test: Cell-based HCV replicon assay (Replicon Assay A), replicon 1AY93H; conditions: read-out: Replicon EC50 (nM) 1A Y93H, replicon 1A Y93H, replicon RNA by real time PCR, cells harvested on day 3
Protocol: as §1, §2, §3, §4

Q: With COC(=O)N[C@H](C(=O)N1CCC[C@H]1c1ncc(-c2cc(F)c3c(c2)OC(c2csnn2)n2c-3cc3cc(-c4cnc([C@@H]5CCCN5C(=O)[C@@H](NC(=O)OC)C(C)C)[nH]4)ccc32)[nH]1)C(C)C (mixture of isomers) [Compound 37] as the molecule, how does the EC50 (HCV replicon 2B; Hepatitis C virus, 72 h) read?
A: 1.32 nM

Q: And the EC50 (HCV replicon 1A; Hepatitis C virus, 72 h)?
A: 0.004 nM

Q: And the EC50 (HCV replicon 1B; Hepatitis C virus, 72 h)?
A: 0.0036 nM

Q: What about the EC50 (HCV replicon 1A Y93H; Hepatitis C virus, 72 h) of the same molecule?
A: 0.857 nM

Q: For COC(=O)N[C@H](C(=O)N1CCC[C@H]1c1ncc(-c2cc(F)c3c(c2)OC(c2nc4ccccc4o2)n2c-3cc3cc(-c4cnc([C@@H]5CCCN5C(=O)[C@@H](NC(=O)OC)C(C)C)[nH]4)ccc32)[nH]1)C(C)C (single isomer, unassigned) [Compound 20], which EC50 (HCV replicon 2B) is on record?
A: 0.32 nM

Q: What about the EC50 (HCV replicon 1A) of the same molecule?
A: 0.0023 nM

Q: What about the EC50 (HCV replicon 1B; Hepatitis C virus, 72 h) of the same molecule?
A: 0.0026 nM

Q: And the EC50 (HCV replicon 1A Y93H)?
A: 0.075 nM

Q: With COC(=O)N[C@H](C(=O)N1CCC[C@H]1c1ncc(-c2cc(F)c3c(c2)OC(c2coc(C4CC4)n2)n2c-3cc3cc(-c4cnc([C@@H]5CCCN5C(=O)[C@@H](NC(=O)OC)C(C)C)[nH]4)ccc32)[nH]1)C(C)C (single isomer, unassigned) [Compound 35] as the molecule, how does the EC50 (HCV replicon 1A; Hepatitis C virus, 72 h) read?
A: 0.0034 nM

Q: What about the EC50 (HCV replicon 1B; Hepatitis C virus, 72 h) of the same molecule?
A: 0.003 nM

Q: Which results are given for COC(=O)N[C@H](C(=O)N1CCC[C@H]1c1ncc(-c2cc(F)c3c(c2)OC(c2cc(C(C)C)no2)n2c-3cc3cc(-c4cnc([C@@H]5CCCN5C(=O)[C@@H](NC(=O)OC)C(C)C)[nH]4)ccc32)[nH]1)C(C)C (mixture of isomers) [Compound 6]?
A: EC50 (HCV replicon 2B; Hepatitis C virus, 72 h): 0.36 nM; EC50 (HCV replicon 1A; Hepatitis C virus, 72 h): 0.0017 nM; EC50 (HCV replicon 1B; Hepatitis C virus, 72 h): 0.0018 nM; EC50 (HCV replicon 1A Y93H; Hepatitis C virus, 72 h): 0.088 nM

Q: For COC(=O)N[C@H](C(=O)N1CCC[C@H]1c1ncc(-c2cc(F)c3c(c2)OC(c2coc(C4CC4)n2)n2c-3cc3cc(-c4cnc([C@@H]5CCCN5C(=O)[C@@H](NC(=O)OC)C(C)C)[nH]4)ccc32)[nH]1)C(C)C (single isomer, unassigned) [Compound 36], which EC50 (HCV replicon 2B; Hepatitis C virus, 72 h) is on record?
A: 0.11 nM

Q: What about the EC50 (HCV replicon 1A) of the same molecule?
A: 0.0023 nM

Q: And the EC50 (HCV replicon 1B)?
A: 0.0029 nM

Q: And the EC50 (HCV replicon 1A Y93H; Hepatitis C virus, 72 h)?
A: 0.102 nM

Q: CCc1nnc(C2Oc3cc(-c4cnc([C@@H]5CCCN5C(=O)[C@@H](NC(=O)OC)C(C)C)[nH]4)cc(F)c3-c3cc4cc(-c5cnc([C@@H]6CCCN6C(=O)C(NC(=O)OC)C(C)C)[nH]5)ccc4n32)s1 (single isomer, unassigned) [Compound 33] was tested. Which EC50 (HCV replicon 1A) did it give?
A: 0.0028 nM

Q: What about the EC50 (HCV replicon 1B; Hepatitis C virus, 72 h) of the same molecule?
A: 0.0026 nM

Q: Which results are given for COC(=O)N[C@H](C(=O)N1CCC[C@H]1c1ncc(-c2cc(F)c3c(c2)OC(c2cn4ccccc4n2)n2c-3cc3cc(-c4cnc([C@@H]5CCCN5C(=O)[C@@H](NC(=O)OC)C(C)C)[nH]4)ccc32)[nH]1)C(C)C (stereo partly shown) [Compound 14]?
A: EC50 (HCV replicon 1A; Hepatitis C virus, 72 h): 0.0057 nM; EC50 (HCV replicon 1B; Hepatitis C virus, 72 h): 0.0078 nM

Q: For COC(=O)N[C@H](C(=O)N1CCC[C@H]1c1ncc(-c2cc(F)c3c(c2)OC(c2cc(C4CC4)no2)n2c-3cc3cc(-c4cnc([C@@H]5CCCN5C(=O)[C@@H](NC(=O)OC)C(C)C)[nH]4)ccc32)[nH]1)C(C)C (single isomer, unassigned) [Compound 30], which EC50 (HCV replicon 2B) is on record?
A: 0.06 nM

Q: And the EC50 (HCV replicon 1A; Hepatitis C virus, 72 h)?
A: 0.0012 nM

Q: And the EC50 (HCV replicon 1B; Hepatitis C virus, 72 h)?
A: 0.0017 nM

Q: And the EC50 (HCV replicon 1A Y93H)?
A: 0.026 nM

Q: Which EC50 (HCV replicon 2B) does the source give for COC(=O)N[C@H](C(=O)N1CCC[C@H]1c1ncc(-c2cc(F)c3c(c2)OC(c2cnns2)n2c-3cc3cc(-c4cnc([C@@H]5CCCN5C(=O)[C@@H](NC(=O)OC)C(C)C)[nH]4)ccc32)[nH]1)C(C)C (single isomer, unassigned) [Compound 22] here?
A: 0.14 nM

Q: And the EC50 (HCV replicon 1A; Hepatitis C virus, 72 h)?
A: 0.0015 nM

Q: And the EC50 (HCV replicon 1B; Hepatitis C virus, 72 h)?
A: 0.0024 nM

Q: What about the EC50 (HCV replicon 1A Y93H) of the same molecule?
A: 0.048 nM

Q: For COC(=O)N[C@H](C(=O)N1CCC[C@H]1c1ncc(-c2cc(F)c3c(c2)OC(c2cc(C(C)C)no2)n2c-3cc3cc(-c4cnc([C@@H]5CCCN5C(=O)[C@@H](NC(=O)OC)C(C)C)[nH]4)ccc32)[nH]1)C(C)C (single isomer, unassigned) [Compound 25], which EC50 (HCV replicon 2B) is on record?
A: 0.3 nM

Q: And the EC50 (HCV replicon 1A; Hepatitis C virus, 72 h)?
A: 0.0012 nM

Q: And the EC50 (HCV replicon 1B; Hepatitis C virus, 72 h)?
A: 0.0011 nM

Q: What about the EC50 (HCV replicon 1A Y93H) of the same molecule?
A: 0.026 nM
